From ChEMBL document CHEMBL3784917, “Recent Progress in Histone Demethylase Inhibitors” (J Med Chem, 2016)

Legend:
[1] = target: T1, Lysine-specific demethylase 4A (Homo sapiens, UniProt O75164); assay: Inhibition of recombinant human N-terminal His-tagged KDM4A (1 to 350 residues) expressed in Escherichia coli using methylated biotin-H3K9 substrate preincubated for 10 mins followed by substrate addition measured after 10 mins by AlphaLisa assay
T1 sequence (O75164 whole entry): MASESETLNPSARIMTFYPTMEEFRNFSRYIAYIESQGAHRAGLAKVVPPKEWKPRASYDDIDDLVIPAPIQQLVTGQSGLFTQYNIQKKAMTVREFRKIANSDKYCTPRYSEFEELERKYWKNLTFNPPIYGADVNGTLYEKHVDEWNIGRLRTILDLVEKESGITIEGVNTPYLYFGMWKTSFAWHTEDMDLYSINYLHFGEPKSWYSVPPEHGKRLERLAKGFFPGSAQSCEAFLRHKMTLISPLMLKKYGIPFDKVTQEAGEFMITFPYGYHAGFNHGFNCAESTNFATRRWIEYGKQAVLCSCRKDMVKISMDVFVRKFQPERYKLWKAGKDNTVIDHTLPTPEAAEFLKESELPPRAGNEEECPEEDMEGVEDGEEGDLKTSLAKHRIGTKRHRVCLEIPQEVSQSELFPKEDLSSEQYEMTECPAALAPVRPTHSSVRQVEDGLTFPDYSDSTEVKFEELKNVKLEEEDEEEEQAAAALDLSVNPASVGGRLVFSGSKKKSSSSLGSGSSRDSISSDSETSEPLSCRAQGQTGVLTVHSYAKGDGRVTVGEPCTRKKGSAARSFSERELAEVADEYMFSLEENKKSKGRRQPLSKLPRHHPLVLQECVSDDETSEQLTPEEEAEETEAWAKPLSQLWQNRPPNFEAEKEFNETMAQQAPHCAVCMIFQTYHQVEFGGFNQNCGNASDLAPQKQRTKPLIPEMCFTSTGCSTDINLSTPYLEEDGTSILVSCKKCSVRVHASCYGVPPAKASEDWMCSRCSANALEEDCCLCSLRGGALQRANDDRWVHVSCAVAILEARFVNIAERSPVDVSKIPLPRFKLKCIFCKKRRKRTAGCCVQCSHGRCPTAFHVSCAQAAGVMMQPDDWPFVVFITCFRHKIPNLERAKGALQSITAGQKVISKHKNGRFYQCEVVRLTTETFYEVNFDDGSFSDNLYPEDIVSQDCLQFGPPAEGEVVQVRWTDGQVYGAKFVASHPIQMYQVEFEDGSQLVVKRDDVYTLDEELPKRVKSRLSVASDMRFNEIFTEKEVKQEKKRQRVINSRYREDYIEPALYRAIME

MCF7 = assay: Antiproliferative activity against human MCF7 cells assessed as reduction in cell viability after 120 hrs by ATPlite assay; assay type: functional, cell-based; settings: MCF7, 120 h
[2] = target: T2, Lysine-specific demethylase 2B (Homo sapiens, UniProt Q8NHM5); assay: biochemical
T2 sequence (Q8NHM5 whole entry): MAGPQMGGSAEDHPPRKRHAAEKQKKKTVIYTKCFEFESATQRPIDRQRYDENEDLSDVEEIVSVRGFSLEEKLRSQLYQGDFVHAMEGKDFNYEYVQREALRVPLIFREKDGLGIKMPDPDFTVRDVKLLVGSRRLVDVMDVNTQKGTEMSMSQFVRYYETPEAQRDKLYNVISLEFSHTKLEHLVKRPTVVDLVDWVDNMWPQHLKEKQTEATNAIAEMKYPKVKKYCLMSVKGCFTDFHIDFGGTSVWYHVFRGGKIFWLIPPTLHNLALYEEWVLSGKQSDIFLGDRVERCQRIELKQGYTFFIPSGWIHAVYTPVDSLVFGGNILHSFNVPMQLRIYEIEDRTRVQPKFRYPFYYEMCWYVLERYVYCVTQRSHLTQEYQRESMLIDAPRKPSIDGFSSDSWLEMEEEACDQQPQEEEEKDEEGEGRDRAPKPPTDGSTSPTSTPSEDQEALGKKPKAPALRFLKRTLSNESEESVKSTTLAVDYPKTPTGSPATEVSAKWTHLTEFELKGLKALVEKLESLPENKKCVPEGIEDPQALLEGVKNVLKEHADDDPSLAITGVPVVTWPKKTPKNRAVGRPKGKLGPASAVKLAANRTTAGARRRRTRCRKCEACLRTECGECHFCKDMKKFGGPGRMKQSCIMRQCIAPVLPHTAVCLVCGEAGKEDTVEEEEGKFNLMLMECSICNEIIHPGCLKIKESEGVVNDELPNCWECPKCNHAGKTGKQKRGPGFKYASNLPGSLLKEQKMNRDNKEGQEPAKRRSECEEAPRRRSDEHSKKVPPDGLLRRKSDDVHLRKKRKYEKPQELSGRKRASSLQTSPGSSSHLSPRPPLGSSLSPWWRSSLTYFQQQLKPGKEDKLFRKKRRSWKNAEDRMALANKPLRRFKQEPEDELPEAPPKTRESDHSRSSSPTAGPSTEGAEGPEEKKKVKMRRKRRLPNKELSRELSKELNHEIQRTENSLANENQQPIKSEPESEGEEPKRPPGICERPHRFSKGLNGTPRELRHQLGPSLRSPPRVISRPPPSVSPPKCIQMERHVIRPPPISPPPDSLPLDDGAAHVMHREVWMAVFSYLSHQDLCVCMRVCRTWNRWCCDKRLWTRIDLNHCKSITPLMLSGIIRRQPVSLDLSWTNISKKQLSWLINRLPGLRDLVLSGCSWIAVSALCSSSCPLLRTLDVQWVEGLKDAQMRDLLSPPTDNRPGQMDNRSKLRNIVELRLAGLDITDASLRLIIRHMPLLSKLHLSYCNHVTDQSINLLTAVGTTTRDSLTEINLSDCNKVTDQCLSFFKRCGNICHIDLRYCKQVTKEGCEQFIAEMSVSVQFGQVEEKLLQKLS

Compound | IC50 [1] | IC50 (MCF7) | IC50 [2] | EC50 (MCF7)
CCN(CCN(C)C)C(=O)CNCc1cc(C(=O)O)ccn1 | < 100 nM | 1000 nM | 100 nM | –
CCN(CC)CCCCNCc1cc(C=O)ccn1 | > 2500 nM | – | > 2500 nM | < 250 nM
CCN(CCN(C)C)C(=O)CNCc1cc(CNC(=O)C(F)(F)F)ccn1 | > 2500 nM | – | > 2500 nM | –
